According to patent publication US20240018120A1, “MAGL INHIBITORS” (H. LUNDBECK A/S, priority 2020, published 2024):

Legend:
[1] = target: T1, MAGL (Rattus norvegicus, UniProt Q8R431); experiment: MAGL IC50 values marked (rat) in Table 1; format: biochemical; conditions: cell marked (rat) in the human PC3 column
T1 sequence (Q8R431 1-303): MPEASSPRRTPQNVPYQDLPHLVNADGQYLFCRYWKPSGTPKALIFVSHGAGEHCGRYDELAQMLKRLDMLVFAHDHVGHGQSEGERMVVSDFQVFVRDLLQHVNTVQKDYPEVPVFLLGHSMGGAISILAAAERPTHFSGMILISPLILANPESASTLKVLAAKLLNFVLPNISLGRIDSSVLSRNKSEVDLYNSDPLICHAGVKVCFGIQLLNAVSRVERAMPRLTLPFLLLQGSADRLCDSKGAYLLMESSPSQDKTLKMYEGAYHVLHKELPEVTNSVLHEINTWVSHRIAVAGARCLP

[2] = system: rat formalin paw model of inflammatory pain; experiment: Rat formalin paw model of inflammatory pain; format: in vivo; conditions: 4 h pre-test, vs vehicle
Experimental: In the rat formalin paw model formalin is administered into the right […] of a rat in order to induce pain (observed by hind limb licking duration and frequency).
Male Sprague Dawley rats were divided into three cohorts to enable testing in the Laboras™ equipment to be carried out over three days in a balanced design to give treatment groups of 10. On the day of the study, male Sprague Dawley rats were weighed, tail marked and dosed orally with vehicle, test compound (0.1, 0.3, 0.6, 1, 3 or 10 mg/kg) or pregabalin (30 mg/kg) 4 h pre-test using a 5 mL/kg dosing volume. For Example 6 the vehicle used was 0.5% methylcellulose in water and for Example 8 the vehicle used was 20% HP-b-CD. Up to six animals were dosed at a time. After 4 h, rats received an intraplantar injection of 50 μL of a 2.5% v/v formalin solution into the right hind paw. Rats were immediately placed into the Laboras™ cages and data acquisition started. The primary measures recorded by Laboras™ for the formalin paw model are hind limb licking duration and frequency. Locomotion is also reported as maximum speed, average speed when moving or over the whole-time bin and distance travelled. After 40 min, when data acquisition was complete, rats were removed from the cages.
On removal from the test cages, rats were anaesthetised with the gaseous anaesthetic isoflurane (5% v/v isoflurane in oxygen) and blood samples were collected by cardiac puncture. Brains were then removed, rinsed in phosphate buffered saline (PBS), hemi-sected and frozen separately in liquid nitrogen.
Data were analysed with Statistica software (TIBCO, USA version 11.1). All data are expressed as means±standard error of the mean (sem) to one decimal place. […] Time course data were analysed by repeated measures analysis of variance (ANOVA) followed by one-way ANOVAs at each time point and subsequent Dunnett's post hoc tests. […]

[3] = target: T2, MAGL (Homo sapiens, UniProt Q99685); experiment: In vitro competitive activity-based protein profiling, PC3 human cell membrane proteomes; format: biochemical; parameters: endogenous in cells; host or cells: PC3 human cells (membrane proteome); conditions: human PC3 membrane proteome
T2 sequence (Q99685 1-303): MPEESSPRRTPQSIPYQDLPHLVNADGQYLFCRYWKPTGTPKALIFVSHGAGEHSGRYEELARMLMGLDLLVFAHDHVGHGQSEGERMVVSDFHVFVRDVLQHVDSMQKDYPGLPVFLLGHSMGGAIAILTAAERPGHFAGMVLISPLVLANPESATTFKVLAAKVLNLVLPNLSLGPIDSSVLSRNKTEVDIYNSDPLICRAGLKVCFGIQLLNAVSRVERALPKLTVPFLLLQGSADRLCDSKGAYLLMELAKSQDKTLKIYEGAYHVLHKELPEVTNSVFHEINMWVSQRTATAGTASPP
Outline: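 Competitive ABPP in PC3 membrane proteome (2.0 mg/mL protein): inhibitors preincubated 30 min at 37° C, then JW912-Bodipy probe added for 30 min at room temperature. MAGL band fluorescence after SDS-PAGE normalised to DMSO; IC50 from 4-parameter sigmoidal fit.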

[4] = system: maximal electroshock seizure threshold (MEST) model; experiment: Maximal electroshock seizure threshold (MEST) model in the rat; format: in vivo; conditions: 10 mg/kg p.o., 240 min pre-treatment
Experimental: In the MEST model, a low-intensity electrical current of high frequency and short duration is applied to induce tonic convulsions.
Animals were randomly assigned to vehicle, compound treatment or Lamotrigine dose groups. Animals were dosed at 5 mL/kg according to treatment groups (n=12 or 16/group), with either vehicle (0.5% MC) p.o. for Example 6, vehicle (10% HP-b-CD) for Example 8, test compound at 10 mg/kg p.o. 240 min pre-treatment time, or Lamotrigine p.o. 360 min pre-treatment time. Rats were individually assessed for production of a tonic hind limb extensor seizure following a single corneally delivered electroshock of 0.3 second duration, using an ‘up and down method’ of shock titration (Kimball A W et al., 1957). Thus, the first rat within a treatment group was given a shock at the expected or estimated CC50 current (current producing tonic hind limb extensor seizures in 50% of animals). […] This procedure was continued for all rats within a treatment group. Induction of seizure was measured as an all-or-nothing effect scored as either present (+) or absent (0) for each animal. […]
Significant differences between drug-treated animals and controls were assessed according to Litchfield and Wilcoxon (1949) or One-Way ANOVA followed by Dunnett's multiple comparisons test.

[5] = system: cryopreserved human hepatocytes; experiment: In vitro human hepatocyte stability; format: in vitro ADME; conditions: human hepatocytes 0.5×10^6 cells/mL, 1 μM
Experimental: The metabolic stability of test articles (1 μM) in commercially sourced, pooled donor, cryopreserved human hepatocytes (0.5×10^6 cells/mL) was determined in duplicate. The CLint reactions (250 μL) were initiated by addition of test compound. Aliquots (25 μL) were taken at 0, 15, 30, 45, 60, 90, 120 and 240 minutes and then protein crashed with ice-cold acetonitrile containing internal standard then centrifuged (3220 g for 25 minutes). Supernatant was used for LC-MS/MS analysis. The in vitro half-life (in vitro t½) was determined from the slope value: in vitro t1/2=−0.693/k. Conversion of the in vitro t1/2 (in min) into the scale-up unbound intrinsic clearance (Scaled-up unbound CLint, in mL/min/kg) was done using the following equation (mean of duplicate determinations), with data shown in Table 5: Scaled-up unbound CLint=kV/N×scaling factor. V=incubation volume (0.25 mL); N=number of hepatocytes per well ([…]). Scaling factors for in vivo intrinsic clearance prediction are listed below: […]

[6] = system: kainic acid seizure model; experiment: Kainic acid seizure model in the rat; format: in vivo
Experimental: Kainic acid is an analog of the excitatory neurotransmitter, glutamate and acts as an agonist of kainic acid receptors. After systemic injection, kainic acid induces prolonged excitatory responses with many of the features of human temporal lobe epilepsy.
Rats, placed in individual Plexiglas cages (33×21×18 cm), are injected with kainic acid (20 mg/kg i.p.). The occurrences of the following symptoms are noted over a 120-minute period 30 minutes after kainic acid injection: forelimb clonus, rearings and rearings with falling, clonic convulsions, tonic convulsions and death. The presence of each symptom and the latencies to the first appearance of the symptoms are measured. The number of forelimb clonus is counted.
12 rats are studied per group. The test is performed partially blind.
The test substances will be evaluated at multiple doses, administered p.o. 240 minutes before the test, and compared with the corresponding vehicle control group (Group 2, administered with 10% HP-b-CD in distilled water, p.o. 240 minutes before the test).
Example 6 was evaluated at 0.3, 1, 3 and 10 mg/kg, and Example 8 was evaluated at 1, 3 and 10 mg/kg, administered p.o. 4 hours before the test, and compared with a vehicle control group (administered with 10% HP-b-CD, p.o. 4 hours before the test).
Diazepam (16 mg/kg) used as reference substance, was administered p.o. 60 minutes before the test (0.5% HP-b-CD) and was compared with vehicle controls.
Quantitative data (latencies) with the test substance was analyzed by comparing treated groups with vehicle control using Kruskal-Wallis test followed by Mann-Whitney U test. Quantitative data with the reference substance will be analysed using Mann-Whitney U test.
Quantal data (frequencies) were analyzed by comparing treated groups with vehicle control using Fisher's Exact Probability tests.

IC50 [1] [µM]	SMILES	measure of spontaneous pain (hind limb licking frequency) ([2]; 0.3 mg/kg and 0.6 mg/kg oral, late phase)	measure of spontaneous pain (hind limb licking frequency) ([2]; 1 mg/kg, 3 mg/kg and 10 mg/kg oral, both early and late phases)	IC50 [3] [µM]	anticonvulsant activity in the MEST (seizure threshold CC50) [4]	Scaled-up unbound CLint [5] [mL/min/kg]	anticonvulsant effects in the kainic acid seizure test ([6]; dose-range 1-10 mg/kg p.o., 4 hours before the test, rat)	magnitude of the effects in the kainic acid seizure test compared with reference ([6]; middle-high doses, reference Diazepam 16 mg/kg p.o.)
0.0033	N#Cc1ccc(NC(=O)C2CC23CCN(C(=O)OC(C(F)(F)F)C(F)(F)F)CC3)cn1 (racemic) [Example 189, 1,1,1,3,3,3-hexafluoropropan-2-yl (+)1-((6-cyanopyridin-3-yl)carbamoyl)-6-azaspiro[2.5]octane-6-carboxylate]	–	–	–	–	–	–	–
–	O=C(NC1CCOCC1)[C@H]1CC12CCN(C(=O)OC(C(F)(F)F)C(F)(F)F)CC2 [Example 8, 1,1,1,3,3,3-Hexafluoropropan-2-yl (S)-1-((tetrahydro-2H-pyran-4-yl)carbamoyl)-6-azaspiro[2.5]octane-6-carboxylate]	statistically significant reduction	statistically significant reduction	0.0657	anticonvulsant activity	7.75	clear anticonvulsant effects	close to those observed with the reference substance, Diazepam
0.39	O=C(O)COc1ccc(NC(=O)C2CC23CCN(C(=O)OC(C(F)(F)F)C(F)(F)F)CC3)cn1 (single isomer, unassigned) [Example 183, (R or S)-2-((5-(6-(((1,1,1,3,3,3-hexafluoropropan-2-yl)oxy)carbonyl)-6-azaspiro[2.5]octane-1-carboxamido)pyridin-2-yl)oxy)acetic acid]	–	–	–	–	–	–	–
